ChEMBL document CHEMBL1201862, “PubChem BioAssay data set” (2004)
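Exposure lasted 48 hours, with cells grown in 96-well plates and compounds tested at five concentrations. The concentration for 50% growth inhibition is given as GI50.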 Activity calls are given as the source filed them. No stated cut-off is given here; in the data, active = GI50 up to about 1.1 µM and inactive = higher.

Tests used:
Experiment in all cases: NCI anticancer screen, dose series, 48 h
[1] = system: RXF 393
[2] = system: A549
[3] = system: NCI-H460
[4] = system: UO-31
[5] = system: MCF7
[6] = system: Hs-578T
[7] = system: SK-MEL-2
[8] = system: UACC-257
[9] = system: SNB-19
[10] = system: OVCAR-4
[11] = system: NCI-H522
[12] = system: SF-268
[13] = system: MDA-MB-231
[14] = system: NCI-H226
[15] = system: HCC 2998
[16] = system: SNB-75
[17] = system: PC-3
[18] = system: 786-0
[19] = system: EKVX
[20] = system: HOP-62
[21] = system: TK-10
[22] = system: HOP-92
[23] = system: U-251
[24] = system: ACHN
[25] = system: MDA-N
[26] = system: MDA-MB-435
[27] = system: IGROV-1
[28] = system: Malme-3M
[29] = system: CCRF-CEM
[30] = system: OVCAR-3
[31] = system: SK-MEL-28
[32] = system: SW-620
[33] = system: DU-145
[34] = system: T47D
[35] = system: RPMI-8226
[36] = system: SK-MEL-5
[37] = system: SK-OV-3
[38] = system: M14
[39] = system: SF-539
[40] = system: SF-295
[41] = system: MOLT-4
[42] = system: HT-29
[43] = system: KM12
[44] = system: COLO 205
[45] = system: OVCAR-8
[46] = system: NCI-H23
[47] = system: BT-549
[48] = system: K562
[49] = system: HCT-116
[50] = system: HL-60
[51] = system: HCT-15
[52] = system: OVCAR-5
[53] = system: LOX IMVI
[54] = system: SN12C
[55] = system: A498
[56] = system: UACC-62
[57] = system: CAKI-1
[58] = system: NCI/ADR-RES
[59] = system: SR

## c1ccc2c(c1)Oc1cccc3cccc-2c13
[1]
  GI50: > 100 µM (inactive)
[2]
  GI50: > 100 µM (inactive)
[3]
  GI50: > 100 µM (inactive)
[4]
  GI50: > 100 µM (inactive)
[5]
  GI50: > 100 µM (inactive)
[6]
  GI50: > 100 µM (inactive)
[7]
  GI50: > 100 µM (inactive)
[8]
  GI50: > 100 µM (inactive)
[9]
  GI50: > 100 µM (inactive)
[10]
  GI50: > 100 µM (inactive)
[11]
  GI50: > 100 µM (inactive)
[12]
  GI50: > 100 µM (inactive)
[13]
  GI50: > 100 µM (inactive)
[14]
  GI50: > 100 µM (inactive)
[15]
  GI50: > 100 µM (inactive)
[16]
  GI50: > 100 µM (inactive)
[17]
  GI50: > 100 µM (inactive)
[18]
  GI50: > 100 µM (inactive)
[19]
  GI50: > 100 µM (inactive)
[20]
  GI50: > 100 µM (inactive)
[21]
  GI50: > 100 µM (inactive)
[22]
  GI50: > 100 µM (inactive)
[23]
  GI50: > 100 µM (inactive)
[24]
  GI50: > 100 µM (inactive)
[25]
  GI50: > 100 µM (inactive)
[26]
  GI50: > 100 µM (inactive)
[27]
  GI50: > 100 µM (inactive)
[28]
  GI50: > 100 µM (inactive)
[29]
  GI50: > 100 µM (inactive)
[30]
  GI50: 42.3 µM (inactive)
[31]
  GI50: > 100 µM (inactive)
[32]
  GI50: > 100 µM (inactive)
[33]
  GI50: > 100 µM (inactive)
[34]
  GI50: > 100 µM (inactive)
[35]
  GI50: > 100 µM (inactive)
[36]
  GI50: > 100 µM (inactive)
[37]
  GI50: > 100 µM (inactive)
[38]
  GI50: > 100 µM (inactive)
[39]
  GI50: > 100 µM (inactive)
[40]
  GI50: > 100 µM (inactive)
[41]
  GI50: 98.2 µM (inactive)
[42]
  GI50: > 100 µM (inactive)
[43]
  GI50: > 100 µM (inactive)
[44]
  GI50: > 100 µM (inactive)
[45]
  GI50: > 100 µM (inactive)
[46]
  GI50: > 100 µM (inactive)
[47]
  GI50: > 100 µM (inactive)
[48]
  GI50: > 100 µM (inactive)
[49]
  GI50: > 100 µM (inactive)
[50]
  GI50: > 100 µM (inactive)
[51]
  GI50: 98.4 µM
[52]
  GI50: > 100 µM (inactive)
[53]
  GI50: > 100 µM (inactive)
[54]
  GI50: > 100 µM (inactive)
[55]
  GI50: > 100 µM (inactive)
[56]
  GI50: > 100 µM (inactive)
[57]
  GI50: > 100 µM (inactive)
[58]
  GI50: > 100 µM (inactive)

## CC(N/N=C(\S)N1CCN(c2ccccn2)CC1)c1cccc[n+]1[O-] (stereo unspecified)
[1]
  GI50: 16.2 µM (inactive)
[2]
  GI50: 8.65 µM (inactive)
[3]
  GI50: 5.31 µM (inactive)
[4]
  GI50: 8.13 µM (inactive)
[5]
  GI50: 13.2 µM (inactive)
[6]
  GI50: 85.7 µM (inactive)
[8]
  GI50: 30.9 µM (inactive)
[9]
  GI50: 32.9 µM (inactive)
[10]
  GI50: 14 µM (inactive)
[11]
  GI50: 2.12 µM (inactive)
[12]
  GI50: 22.8 µM (inactive)
[13]
  GI50: 19 µM (inactive)
[14]
  GI50: 34.9 µM (inactive)
[15]
  GI50: 21.1 µM (inactive)
[16]
  GI50: 48.6 µM (inactive)
[17]
  GI50: 15.3 µM (inactive)
[18]
  GI50: 7.71 µM (inactive)
[19]
  GI50: 6.47 µM (inactive)
[20]
  GI50: 67.3 µM (inactive)
[21]
  GI50: 32 µM (inactive)
[22]
  GI50: 20.5 µM (inactive)
[23]
  GI50: 12.8 µM (inactive)
[24]
  GI50: 6.01 µM (inactive)
[25]
  GI50: 18.4 µM (inactive)
[26]
  GI50: 25.3 µM (inactive)
[27]
  GI50: 43.8 µM (inactive)
[29]
  GI50: 1.98 µM (inactive)
[30]
  GI50: 4.9 µM (inactive)
[31]
  GI50: 16.8 µM (inactive)
[32]
  GI50: 4.85 µM (inactive)
[33]
  GI50: 57.1 µM (inactive)
[34]
  GI50: 77.1 µM (inactive)
[36]
  GI50: 12.5 µM (inactive)
[38]
  GI50: 28.3 µM (inactive)
[39]
  GI50: 17.4 µM (inactive)
[40]
  GI50: 12.3 µM (inactive)
[41]
  GI50: 2.58 µM (inactive)
[42]
  GI50: 0.661 µM (active)
[43]
  GI50: 52.4 µM (inactive)
[44]
  GI50: 10.5 µM (inactive)
[45]
  GI50: 6.9 µM (inactive)
[46]
  GI50: 28.2 µM (inactive)
[47]
  GI50: 43.2 µM (inactive)
[48]
  GI50: 0.811 µM (active)
[49]
  GI50: 2.82 µM (inactive)
[50]
  GI50: 3.13 µM (inactive)
[51]
  GI50: 3.28 µM
[53]
  GI50: 8.17 µM (inactive)
[59]
  GI50: 4.58 µM (inactive)
[54]
  GI50: 23.6 µM (inactive)
[56]
  GI50: 2.95 µM (inactive)
[57]
  GI50: 14.2 µM (inactive)
[58]
  GI50: 2.9 µM (inactive)
